For data set [1], the target named is hERG channel (Homo sapiens, UniProt Q12809). The experiment in a line: hERG competition binding. The text has this:
Compounds that are antagonists or inverse agonists at the human H1 receptor are often found to bind to the hERG channel, giving rise to arrhythmia possibly leading to sudden cardiac arrest. This led to the withdrawal of several medicines from the clinics. This parameter has thus been evaluated for the compounds of the present application.
The discriminative recognition of hERG channel by the eutomer versus the distomer is shown in the table below where the reported values are the inhibition constant determined by competition binding: […]
Background: The hERG channel carries a current that helps repolarise heart muscle cells.

The nature of data set [2]: Brain exposure: exposure over 8 hours in brain and plasma after per os administration to mice. The format is in vivo. The conditions noted are these: for Kp: mouse, brain/plasma, oral, examples of the present invention, read-out: ratio of the exposure in brain over the one in plasma. How it is done: Compounds that are acting as […] or inverse agonists on the histamine H1 receptor should not enter the brain. This would lead to unwanted side effects such as sedation and weight gain. The efficiency for entering into the brain may be assessed by administrating the compound per os to mice and measuring the exposure over 8 hours in the brain and in the plasma. The result may be expressed by the ratio of the exposure in brain over the one in plasma.

Data set [3] deals with human H1 receptor (Homo sapiens, UniProt P35367). The data set can be described thus: hH1 GTPgS: inhibition of agonist-induced stimulation of radioactive GTP-gamma-S binding at recombinant receptors. Type of data set: biochemical. How it is done: (§1) Activity at the human H1 receptor is determined by the inhibition of agonist-induced stimulation of radioactive GTP-gamma-S binding at recombinant receptors. […] Affinity for the human H4 receptor is determined by binding competition.
human H1 receptor, sequence (P35367 whole entry): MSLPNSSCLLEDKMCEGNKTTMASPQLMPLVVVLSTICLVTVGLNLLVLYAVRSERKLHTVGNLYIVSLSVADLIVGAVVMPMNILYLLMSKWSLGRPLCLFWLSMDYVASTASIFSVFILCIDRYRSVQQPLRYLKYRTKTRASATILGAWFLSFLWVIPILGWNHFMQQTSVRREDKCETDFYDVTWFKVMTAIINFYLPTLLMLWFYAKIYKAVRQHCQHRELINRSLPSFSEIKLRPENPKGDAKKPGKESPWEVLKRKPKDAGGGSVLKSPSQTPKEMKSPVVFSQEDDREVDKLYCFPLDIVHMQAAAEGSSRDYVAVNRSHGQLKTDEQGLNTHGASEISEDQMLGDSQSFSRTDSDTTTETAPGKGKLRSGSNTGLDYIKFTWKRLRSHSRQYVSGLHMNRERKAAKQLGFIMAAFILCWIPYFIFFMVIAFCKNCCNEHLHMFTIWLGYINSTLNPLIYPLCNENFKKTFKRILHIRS
In general terms: GTPγS is a poorly hydrolysed GTP analogue; its binding reports G protein activation.

In data set [4] the target is human H4 receptor (Homo sapiens, UniProt Q9H3N8). The data set can be described thus: hH4 binding competition. On the procedure: as §1
human H4 receptor, sequence (Q9H3N8 whole entry): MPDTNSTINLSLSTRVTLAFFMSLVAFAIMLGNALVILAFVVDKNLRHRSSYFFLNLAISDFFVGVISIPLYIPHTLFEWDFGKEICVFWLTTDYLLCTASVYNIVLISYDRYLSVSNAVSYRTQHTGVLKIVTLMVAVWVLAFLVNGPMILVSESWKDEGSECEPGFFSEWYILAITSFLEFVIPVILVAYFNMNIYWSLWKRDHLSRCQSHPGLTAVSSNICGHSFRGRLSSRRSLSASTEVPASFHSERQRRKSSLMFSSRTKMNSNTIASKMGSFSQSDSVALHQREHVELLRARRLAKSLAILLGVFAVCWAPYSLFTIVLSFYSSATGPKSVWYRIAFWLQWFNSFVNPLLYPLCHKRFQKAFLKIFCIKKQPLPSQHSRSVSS
Data set [5] is described as follows: Bioavailability / lung exposure after per os administration to mice. The format is in vivo.
The conditions of data set [6]: allergic conjunctivitis; Nakano Y et al. Eur J Pharmacol 2009; cited from earlier work.
[7] abbreviates: comparative compounds of WO 2012/041860, eutomer and distomer.
[8] abbreviates: eutomers of the invention and their distomers.

Like-named read-outs stand apart in the source and are kept apart here.

hERG channel, sequence (Q12809 whole entry): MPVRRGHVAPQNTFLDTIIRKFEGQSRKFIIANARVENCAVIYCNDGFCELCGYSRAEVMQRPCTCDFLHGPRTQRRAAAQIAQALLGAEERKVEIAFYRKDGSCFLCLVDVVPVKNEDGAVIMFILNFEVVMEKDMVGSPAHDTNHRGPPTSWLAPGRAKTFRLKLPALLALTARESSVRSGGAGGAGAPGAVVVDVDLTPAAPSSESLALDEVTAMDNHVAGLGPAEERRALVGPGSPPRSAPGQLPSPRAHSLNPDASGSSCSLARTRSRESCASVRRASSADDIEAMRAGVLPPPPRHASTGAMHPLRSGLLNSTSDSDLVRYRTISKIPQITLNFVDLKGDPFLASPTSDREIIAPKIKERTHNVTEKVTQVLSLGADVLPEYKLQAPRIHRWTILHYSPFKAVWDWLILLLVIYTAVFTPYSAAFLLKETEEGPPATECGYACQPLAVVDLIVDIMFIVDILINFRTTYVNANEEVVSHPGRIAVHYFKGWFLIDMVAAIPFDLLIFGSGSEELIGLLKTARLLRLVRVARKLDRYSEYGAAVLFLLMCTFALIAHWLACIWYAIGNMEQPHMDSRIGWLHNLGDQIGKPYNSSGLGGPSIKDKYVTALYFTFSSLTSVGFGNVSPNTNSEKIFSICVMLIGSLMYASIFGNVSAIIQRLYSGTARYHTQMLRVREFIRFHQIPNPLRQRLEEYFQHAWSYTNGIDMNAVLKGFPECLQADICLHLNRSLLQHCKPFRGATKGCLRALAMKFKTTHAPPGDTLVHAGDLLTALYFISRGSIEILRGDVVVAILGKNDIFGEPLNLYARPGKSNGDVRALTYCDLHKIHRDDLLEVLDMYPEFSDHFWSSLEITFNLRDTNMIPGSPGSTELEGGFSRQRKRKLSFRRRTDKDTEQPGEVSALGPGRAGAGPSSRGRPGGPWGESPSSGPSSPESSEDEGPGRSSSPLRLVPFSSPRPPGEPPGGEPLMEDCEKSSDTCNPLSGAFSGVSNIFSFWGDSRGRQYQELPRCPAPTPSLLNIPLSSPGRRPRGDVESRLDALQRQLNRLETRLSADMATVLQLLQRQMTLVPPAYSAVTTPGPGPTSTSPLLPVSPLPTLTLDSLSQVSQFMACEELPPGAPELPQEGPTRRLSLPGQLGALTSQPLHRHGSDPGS

One may read the Ki as a measure of affinity in units of concentration, obtained from inhibition or displacement. Low values mean tighter binding, high ones weaker binding. `Cc1ccc(C(OC2CCN(C)CC2)c2nc3ccccc3[nH]2)c(F)c1` (stereo not shown) [drawing 24 Eutomer, reference compound] showed a Ki in data set [1] (setting [7]) of 503 nM.

Take “(S)-2-[(1H-benzimidazol-2-yl)(1-methylpiperidin-4-yloxy)methyl]-6-fluorophenol [Example 1]”: in data set [2] (10 mg/kg, comparative compounds, example numbers of WO2012/041860), the “ratio of the exposure in brain over the one in plasma” value is reported as 13.

Consider `Cc1ccc(C(OC2CCN(C)CC2)c2nc3ccccc3[nH]2)c(O)c1F` (stereo not shown) [drawing 25 Eutomer, reference compound], for which affinity in data set [1] (setting [7]) was put at a Ki of 3100 nM.

With `Cc1cccc2nc(C(OC3CCN(C)CC3)c3ccccc3O)[nH]c12` (single isomer, unassigned) [Example 4], the Kp in data set [2] (1 mg/kg) worked out at 0.3. In addition, the Kb in data set [3] turned out to be 0.165 nM. Besides, the Ki in data set [1] (setting [8]) came to 21300 nM; in data set [4], 2.87 nM. In addition, the “lung AUC” value in data set [5] (1 mg/kg) came to 1144 ng·h/g.

Regarding `CN1CCC(OC(c2nc3ccccc3[nH]2)c2cccc(F)c2O)CC1` (single isomer, unassigned) [Example 1], the Kp in data set [2] (10 mg/kg) worked out at 0.2. In addition, in data set [5] (10 mg/kg), the “lung AUC” value is 20486 ng·h/g.

Compound `CN1CCC(OC(c2nc3ccccc3[nH]2)c2ccc(F)c(F)c2O)CC1` (stereo not shown) [drawing 26 Distomer, reference compound] showed a Ki in data set [1] (setting [7]) of 32000 nM.

For the compound `CN1CCC(OC(c2nc3cc(F)ccc3[nH]2)c2ccccc2O)CC1` (single isomer, unassigned) [Example 5], the Kb in data set [3] was 1.65 nM. Besides, the Ki came out at 3210 nM in data set [1] (setting [8]) and 0.915 nM in data set [4]. Besides, in data set [5] (1 mg/kg), the “lung AUC” value was 1264 ng·h/g.

In data set [1] (setting [7]), `Cc1ccc(C(OC2CCN(C)CC2)c2nc3ccc(F)cc3[nH]2)c(O)c1F` (single isomer, unassigned) [drawing 27 Distomer, reference compound] returned a Ki of 799 nM.

For the compound `CN1CCC(OC(c2nc3cccc(Cl)c3[nH]2)c2ccccc2O)CC1` (single isomer, unassigned) [Example 6], the Kp in data set [2] (1 mg/kg) amounted to 0. In addition, in data set [3], the Kb amounted to 1.25 nM. For the same compound, the Ki in data set [1] (setting [8]) worked out at 12500 nM; in data set [4], 3.42 nM. Also, in data set [5] (1 mg/kg), the “lung AUC” value stood at 6316 ng·h/g.

As to `CN1CCC(OC(c2nc3ccccc3[nH]2)c2ccc(F)c(F)c2O)CC1` (stereo not shown) [drawing 26 Eutomer, reference compound], the Ki in data set [1] (setting [7]) was determined as 18000 nM.

As for `CN1CCC(OC(c2nc3ccccc3[nH]2)c2cccc(F)c2O)CC1` (single isomer, unassigned) [Example 1 Distomer A], the Kb in data set [3] was 225 nM. Moreover, the Ki turned out to be 4210 nM in data set [1] (setting [8]) and 788 nM in data set [4].

`CN1CCC(OC(c2nc3ccccc3[nH]2)c2ccc(Cl)c(F)c2O)CC1` (stereo not shown) [drawing 28 Distomer, reference compound] returned a Ki in data set [1] (setting [7]) of 8430 nM.

For `Cc1cccc2nc(C(OC3CCN(C)CC3)c3ccccc3O)[nH]c12` (single isomer, unassigned) [Example 4 Distomer A], the Kb in data set [3] worked out at 133 nM. Also, the Ki came out at 2780 nM in data set [1] (setting [8]) and 491 nM in data set [4].

Regarding `CN1CCC(OC(c2nc3ccccc3[nH]2)c2ccc(Cl)c(F)c2O)CC1` (stereo not shown) [drawing 28 Eutomer, reference compound], the Ki in data set [1] (setting [7]) is 6680 nM.

Consider `Cc1ccc(C(OC2CCN(C)CC2)c2nc3ccccc3[nH]2)c(F)c1` (stereo not shown) [drawing 24 Distomer, reference compound], for which the Ki in data set [1] (setting [7]) came to 363 nM.

In data set [1] (setting [7]), `Cc1ccc(C(OC2CCN(C)CC2)c2nc3ccc(F)cc3[nH]2)c(O)c1F` (single isomer, unassigned) [drawing 27 Eutomer, reference compound] displayed a Ki of 220 nM.

`Cc1ccc(C(OC2CCN(C)CC2)c2nc3ccccc3[nH]2)c(O)c1F` (stereo not shown) [drawing 25 Distomer, reference compound] gave a Ki in data set [1] (setting [7]) of 5700 nM.

As to `C[C@@H]1CN([C@H]2CC[C@](C#N)(c3ccc(F)cc3)CC2)CC[C@]1(C(=O)O)c1ccccc1` [levocabastine], in data set [6], the eye scratching behavior entry is “inhibited eye scratching behavior”.

For the compound `Cc1c(Cl)ccc2nc(C(OC3CCN(C)CC3)c3ccccc3O)[nH]c12` (single isomer, unassigned) [Example 7], the Kb in data set [3] was 1.87 nM. For the same compound, the Ki in data set [1] (setting [8]) came out at 3010 nM; in data set [4], 0.727 nM. Besides, in data set [5] (1 mg/kg), the “lung AUC” value stood at 1169 ng·h/g.

`Cc1c(Cl)ccc2nc(C(OC3CCN(C)CC3)c3ccccc3O)[nH]c12` (single isomer, unassigned) [Example 7 Distomer A]: the Kb in data set [3] was 132 nM. Moreover, the Ki in data set [1] (setting [8]) was determined as 586 nM; in data set [4], 73.1 nM.

For the compound `CN1CCC(OC(c2nc3cccc(Cl)c3[nH]2)c2ccccc2O)CC1` (single isomer, unassigned) [Example 6 Distomer A], the Kb in data set [3] turned out to be 598 nM. Moreover, the results for the Ki in data set [1] (setting [8]) and in data set [4] were 1490 nM and 474 nM, respectively.

For the compound `CN1CCC(O[C@H](c2nc3ccccc3[nH]2)c2cccc(F)c2O)CC1` [Example 1, (S)-2-[(1H-benzimidazol-2-yl)(1-methylpiperidin-4-yloxy)methyl]-6-fluorophenol], in data set [3], the Kb was found to be 2.18 nM. In addition, the Ki in data set [1] (setting [8]) was found to be 11400 nM; in data set [4], 5.02 nM.

Consider `CN1CCC(OC(c2nc3ccc(Cl)c(F)c3[nH]2)c2ccccc2O)CC1` (single isomer, unassigned) [Example 3 Distomer A], for which, in data set [3], the Kb turned out to be 156 nM. Moreover, the Ki in data set [1] (setting [8]) came out at 783 nM; in data set [4], 42 nM.

As to `CN1CCC(OC(c2nc3cc(F)ccc3[nH]2)c2ccccc2O)CC1` (single isomer, unassigned) [Example 5 Distomer A], the Kb in data set [3] is 97.5 nM. The results for the Ki in data set [1] (setting [8]) and in data set [4] were 646 nM and 249 nM, respectively.

As to `CN1CCC(OC(c2nc3ccc(Cl)c(F)c3[nH]2)c2ccccc2O)CC1` (single isomer, unassigned) [Example 3], the Kp in data set [2] (1 mg/kg) was found to be 0. For the same compound, the Kb in data set [3] came to 1.43 nM. In addition, the Ki was 2580 nM in data set [1] (setting [8]) and 0.61 nM in data set [4]. Also, the “lung AUC” value in data set [5] (1 mg/kg) stood at 10037 ng·h/g.

The record behind these values is patent publication US12134608B2, “Benzimidazole derivatives as dual histamine H1 and histamine H4 receptor ligands” (BIOPROJET, priority 2017, dated 2024).
